# Source: US8580516B2, “Methods and compositions for direct detection of DNA damage” (University of Chicago, priority 2008, dated 2013)
# Columns and labels:
# [1] = Privat and Sowers 1996; cited from earlier work
# HL60 cells = test: In vitro differentiation of HL60 cells to neutrophils, CD11b flow cytometry; format: cell-based; conditions: 1 μM, five days, FITC anti-human CD11b flow cytometry
# Experimental: HL60 cells were grown to confluence (1×10^6 cells/ml) in Roswell Park Memorial Institute media (“RPMI”) 1640 media supplemented with 10% fetal bovine serum, 1% penicillin/streptomycin and 2 mM L-glutamine at 37° C. in 5% CO2 and treated with ethanol carrier, 1 μM ATRA or 1 μM ATRA, 6 nM Vitamin D3 and 30 ng/ml G-CSF for five days.
# mammalian cells = conditions: via misincorporation and/or mispairing during replication; cited from earlier work
# several cell lines = conditions: cited from earlier work
smiles,measurement,setting,value
O=c1ccn([C@@H]2O[C@H](CO)[C@@H](O)[C@H]2O)c(=O)[nH]1 [uridine],pKa,[1],9.4
"CC1=C(/C=C/C(C)=C/C=C/C(C)=C/C(=O)O)C(C)(C)CCC1 [ATRA, all-trans retinoic acid]",expression of CD11b,HL60 cells,increased expression of CD11b
"O=Cc1cn([C@H]2C[C@H](O)[C@@H](COP(=O)(O)OP(=O)(O)OP(=O)(O)O)O2)c(=O)[nH]c1=O [5-FodUTP, 5-formyl deoxyuridine triphosphate]",mutations induced in cells,mammalian cells,induces both transition and transversion mutations
"O=Cc1cn([C@H]2C[C@H](O)[C@@H](CO)O2)c(=O)[nH]c1=O [5-FodU, 5-formyldeoxyuridine]",pKa,[1],6.8
same,IC50,"several cell lines; 5-FodU fed to tissue culture cells, several cell lines, read-out: IC50 (toxicity)",~1 µM
same,toxicity in cells lacking thymidine kinase or thymidylate synthetase,several cell lines; cells lacking thymidine kinase or thymidylate synthetase,lost
